Measured values reported in ChEMBL document CHEMBL1201862, “PubChem BioAssay data set” (2004).
The source made the active and inactive calls.

Key:
[1] = target: Glyceraldehyde-3-phosphate dehydrogenase (Homo sapiens, UniProt P04406)
[2] = target: Alkaline phosphatase, placental type (Homo sapiens, UniProt P05187); assay: PLAP enzyme inhibitors, confirmation, biochemical, luminescence (AID 1512); format: functional
[3] = target: T1, Alkaline phosphatase, tissue-nonspecific isozyme (Homo sapiens, UniProt P05186); assay: human TNAP enzyme inhibitors, SAR follow-up, biochemical, luminescent, dose response (AID 1056)
T1 sequence (P05186 whole entry): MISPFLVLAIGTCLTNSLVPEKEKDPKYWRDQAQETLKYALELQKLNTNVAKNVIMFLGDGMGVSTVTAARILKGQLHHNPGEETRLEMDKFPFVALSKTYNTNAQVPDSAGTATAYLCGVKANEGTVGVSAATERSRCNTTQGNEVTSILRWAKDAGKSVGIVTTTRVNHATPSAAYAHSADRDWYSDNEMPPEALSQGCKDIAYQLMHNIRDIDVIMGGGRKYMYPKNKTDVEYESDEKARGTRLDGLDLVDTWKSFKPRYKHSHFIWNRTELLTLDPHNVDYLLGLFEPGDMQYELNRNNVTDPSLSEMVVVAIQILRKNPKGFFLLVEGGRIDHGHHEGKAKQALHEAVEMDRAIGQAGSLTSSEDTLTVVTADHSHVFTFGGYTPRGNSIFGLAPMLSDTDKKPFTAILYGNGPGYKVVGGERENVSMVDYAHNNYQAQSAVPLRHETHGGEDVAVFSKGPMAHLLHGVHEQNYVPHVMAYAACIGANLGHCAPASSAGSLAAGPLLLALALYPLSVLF

[4] = target: T2, Delta-type opioid receptor (Homo sapiens, UniProt P41143); assay: HTS Image-Based Screen for Antagonists of the DOR Receptor. [Related pubchem assays (depositor defined):AID1777, AID1785, AID1786, AID2133]; format: functional
T2 sequence (P41143 whole entry): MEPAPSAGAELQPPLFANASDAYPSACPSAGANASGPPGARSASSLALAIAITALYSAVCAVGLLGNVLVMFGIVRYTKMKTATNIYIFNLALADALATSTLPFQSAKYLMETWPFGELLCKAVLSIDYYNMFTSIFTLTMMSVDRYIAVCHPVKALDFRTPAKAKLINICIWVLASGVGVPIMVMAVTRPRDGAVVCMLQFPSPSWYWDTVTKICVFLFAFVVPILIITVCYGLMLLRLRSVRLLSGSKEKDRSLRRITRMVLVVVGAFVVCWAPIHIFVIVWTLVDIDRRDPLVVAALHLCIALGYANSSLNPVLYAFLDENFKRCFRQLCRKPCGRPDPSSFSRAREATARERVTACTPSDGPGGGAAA

Mu-type opioid receptor = Mu-type opioid receptor (Homo sapiens, UniProt P35372); assay: HTS Image-Based Screen for Agonists of the MOR Receptor. [Related pubchem assays (depositor defined):AID1777, AID1785, AID1786, AID2133]; format: functional;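 further: imaging of beta-arrestin GFP recruitment into spots after receptor activation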
[5] = target: T2, Delta-type opioid receptor; assay: HTS Image-Based Screen for Agonists of the DOR Receptor. [Related pubchem assays (depositor defined):AID1777, AID1786, AID2133]; format: functional
[6] = target: T3, Kappa-type opioid receptor (Homo sapiens, UniProt P41145); format: functional
T3 sequence (P41145 whole entry): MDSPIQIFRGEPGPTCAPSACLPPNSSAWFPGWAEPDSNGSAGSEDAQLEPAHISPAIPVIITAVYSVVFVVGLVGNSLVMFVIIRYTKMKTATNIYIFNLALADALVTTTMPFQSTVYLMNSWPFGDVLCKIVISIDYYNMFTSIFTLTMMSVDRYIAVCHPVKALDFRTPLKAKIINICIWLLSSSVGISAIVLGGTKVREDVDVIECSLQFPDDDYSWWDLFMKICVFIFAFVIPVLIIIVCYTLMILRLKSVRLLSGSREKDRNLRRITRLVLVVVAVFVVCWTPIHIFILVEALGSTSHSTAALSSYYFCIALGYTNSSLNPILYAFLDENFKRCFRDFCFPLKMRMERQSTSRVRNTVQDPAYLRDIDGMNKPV

Beta-galactosidase [7] = target: T4, Beta-galactosidase (Escherichia coli, UniProt Q8VNN2); format: functional
T4 sequence (Q8VNN2 whole entry): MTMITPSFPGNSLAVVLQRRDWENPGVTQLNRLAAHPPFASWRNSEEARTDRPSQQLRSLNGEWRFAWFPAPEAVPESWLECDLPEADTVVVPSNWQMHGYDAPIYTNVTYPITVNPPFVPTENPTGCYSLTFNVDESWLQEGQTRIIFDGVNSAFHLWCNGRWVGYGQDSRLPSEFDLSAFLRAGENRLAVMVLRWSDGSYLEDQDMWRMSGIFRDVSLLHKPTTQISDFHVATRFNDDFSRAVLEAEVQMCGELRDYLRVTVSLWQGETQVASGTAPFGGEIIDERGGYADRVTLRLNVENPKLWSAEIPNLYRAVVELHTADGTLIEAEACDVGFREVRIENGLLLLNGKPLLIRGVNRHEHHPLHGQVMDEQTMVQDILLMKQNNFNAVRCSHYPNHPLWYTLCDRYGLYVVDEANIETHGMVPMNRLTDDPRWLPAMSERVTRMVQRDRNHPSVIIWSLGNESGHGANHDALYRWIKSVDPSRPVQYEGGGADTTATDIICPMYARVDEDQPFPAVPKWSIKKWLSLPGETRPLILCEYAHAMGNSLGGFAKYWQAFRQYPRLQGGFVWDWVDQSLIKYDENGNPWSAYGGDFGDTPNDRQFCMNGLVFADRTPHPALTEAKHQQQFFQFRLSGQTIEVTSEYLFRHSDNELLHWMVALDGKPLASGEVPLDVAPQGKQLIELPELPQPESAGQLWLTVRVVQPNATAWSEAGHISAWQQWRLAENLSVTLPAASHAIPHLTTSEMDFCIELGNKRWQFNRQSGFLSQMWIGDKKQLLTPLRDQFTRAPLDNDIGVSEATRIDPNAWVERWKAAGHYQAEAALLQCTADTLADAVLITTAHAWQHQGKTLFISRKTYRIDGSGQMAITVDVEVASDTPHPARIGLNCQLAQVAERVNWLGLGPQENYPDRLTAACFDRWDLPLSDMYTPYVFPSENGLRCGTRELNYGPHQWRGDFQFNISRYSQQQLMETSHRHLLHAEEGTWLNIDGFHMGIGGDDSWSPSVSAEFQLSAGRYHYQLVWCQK

[8] = target: T3, Kappa-type opioid receptor; format: functional; remark: listed apart in the source
Cytochrome P450 3A4 = Cytochrome P450 3A4 (Homo sapiens, UniProt P08684);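 further: CYP3A4 tested as one member of a cytochrome P450 panel screen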
Cytochrome P450 3A4, sequence (P08684 whole entry): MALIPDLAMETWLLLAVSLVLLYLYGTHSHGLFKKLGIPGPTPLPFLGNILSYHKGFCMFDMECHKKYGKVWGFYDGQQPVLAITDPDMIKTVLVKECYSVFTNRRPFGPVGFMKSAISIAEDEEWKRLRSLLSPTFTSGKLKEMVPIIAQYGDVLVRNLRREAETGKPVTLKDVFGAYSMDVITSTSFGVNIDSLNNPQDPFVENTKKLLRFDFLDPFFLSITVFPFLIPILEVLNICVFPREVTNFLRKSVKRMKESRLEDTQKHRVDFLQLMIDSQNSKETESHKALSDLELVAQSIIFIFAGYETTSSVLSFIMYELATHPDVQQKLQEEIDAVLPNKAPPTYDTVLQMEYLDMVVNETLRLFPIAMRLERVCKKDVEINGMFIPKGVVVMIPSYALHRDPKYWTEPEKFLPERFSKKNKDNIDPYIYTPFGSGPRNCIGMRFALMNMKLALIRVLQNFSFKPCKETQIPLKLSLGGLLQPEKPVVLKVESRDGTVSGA

[9] = NIH-3T3 fibroblast cytotoxicity, dose response, cytotoxicity control, cell-based, fluorescence, Alamar Blue, secondary assay (AID 2327); format: functional;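 further: NIH-3T3 mouse fibroblasts cultured with fluconazole at 8 µg/mL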
Beta-galactosidase [10] = target: T4, Beta-galactosidase; assay: beta-galactosidase enzyme inhibitors and activators, dose response, artefact control for CCR6 antagonist project, biochemical, E. coli enzyme, set 3 (AID 504712); format: functional
Nonstructural protein 1 = Nonstructural protein 1 (Influenza A virus, UniProt Q194T2); format: functional, Influenza A virus (A/California/07/2009(H1N1))
[11] = target: T5, RNA-binding protein pos-1 (Caenorhabditis elegans, UniProt G5EF15); assay: inhibitors of POS-1/mex-3 RNA binding, dose response, biochemical, fluorescence polarization (AID 1964);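 further: purified POS-1 fused to maltose binding protein made in E. coli; potency of compounds blocking POS-1 binding to fluorescent RNA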
T5 sequence (G5EF15 whole entry): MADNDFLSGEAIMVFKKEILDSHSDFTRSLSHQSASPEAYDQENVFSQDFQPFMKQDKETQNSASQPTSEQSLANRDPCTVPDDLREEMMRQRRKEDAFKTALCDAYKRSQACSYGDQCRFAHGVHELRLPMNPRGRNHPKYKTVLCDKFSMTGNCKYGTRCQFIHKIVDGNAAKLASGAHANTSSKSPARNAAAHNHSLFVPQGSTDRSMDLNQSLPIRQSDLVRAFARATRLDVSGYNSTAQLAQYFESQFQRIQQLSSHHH

[12] = target: T6, Zinc finger protein mex-5 (Caenorhabditis elegans, UniProt Q9XUB2); assay: MEX-5/TCR-2 RNA interaction inhibitors, dose response, biochemical, C. elegans, fluorescence polarization (AID 1960)
T6 sequence (Q9XUB2 whole entry): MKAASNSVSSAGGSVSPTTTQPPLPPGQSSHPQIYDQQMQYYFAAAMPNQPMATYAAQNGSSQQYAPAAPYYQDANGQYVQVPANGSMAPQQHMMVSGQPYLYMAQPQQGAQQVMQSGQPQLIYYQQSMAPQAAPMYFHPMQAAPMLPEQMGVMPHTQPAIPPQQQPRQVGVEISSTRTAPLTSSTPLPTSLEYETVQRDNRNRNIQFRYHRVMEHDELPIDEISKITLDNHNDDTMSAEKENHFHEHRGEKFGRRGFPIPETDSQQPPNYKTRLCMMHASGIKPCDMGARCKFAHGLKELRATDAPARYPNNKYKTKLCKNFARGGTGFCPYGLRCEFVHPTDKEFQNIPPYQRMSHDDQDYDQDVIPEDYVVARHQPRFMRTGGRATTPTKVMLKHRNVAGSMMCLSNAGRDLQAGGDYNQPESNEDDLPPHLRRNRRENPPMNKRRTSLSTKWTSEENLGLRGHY

Large T antigen = Large T antigen (Simian virus 40, UniProt P03070); format: functional, Betapolyomavirus macacae;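 further: Confirmatory-stage PubChem screen for compounds that inhibit SV40 T antigen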
Large T antigen, sequence (P03070 whole entry): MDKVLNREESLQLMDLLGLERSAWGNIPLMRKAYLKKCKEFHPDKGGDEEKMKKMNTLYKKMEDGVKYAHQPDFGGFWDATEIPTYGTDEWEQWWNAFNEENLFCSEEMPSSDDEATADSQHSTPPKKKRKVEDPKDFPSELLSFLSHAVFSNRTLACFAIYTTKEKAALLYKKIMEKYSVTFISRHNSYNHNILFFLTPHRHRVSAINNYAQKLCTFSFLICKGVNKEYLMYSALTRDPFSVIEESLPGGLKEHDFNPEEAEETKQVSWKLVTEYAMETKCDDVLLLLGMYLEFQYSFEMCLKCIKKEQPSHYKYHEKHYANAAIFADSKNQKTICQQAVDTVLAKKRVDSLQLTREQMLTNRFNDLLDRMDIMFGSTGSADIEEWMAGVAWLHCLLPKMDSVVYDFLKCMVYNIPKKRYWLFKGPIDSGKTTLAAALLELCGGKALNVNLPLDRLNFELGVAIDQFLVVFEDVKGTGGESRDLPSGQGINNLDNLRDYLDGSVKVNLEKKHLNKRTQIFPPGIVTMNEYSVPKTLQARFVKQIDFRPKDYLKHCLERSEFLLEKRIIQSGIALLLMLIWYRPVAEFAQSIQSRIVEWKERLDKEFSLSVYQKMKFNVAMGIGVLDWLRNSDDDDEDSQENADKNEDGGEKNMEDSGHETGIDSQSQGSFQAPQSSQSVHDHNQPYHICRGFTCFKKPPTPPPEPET

[13] = target: Glucose-6-phosphate 1-dehydrogenase (Homo sapiens, UniProt P11413); assay: human G6PD enzyme inhibitors, dose response, selectivity assay for P. falciparum G6PD inhibitor project, biochemical, fluorescence (AID 504792); format: functional
[14] = target: Dual specificity tyrosine-phosphorylation-regulated kinase 1A (Rattus norvegicus, UniProt Q63470); format: biochemical, Homo sapiens
[15] = target: Intestinal-type alkaline phosphatase (Mus musculus, UniProt P24822); assay: PubChem AID 488785; format: functional
[16] = target: T1, Alkaline phosphatase, tissue-nonspecific isozyme; assay: TNAP enzyme inhibition by screening hits, dose response, selectivity assay for mouse IAP inhibitor project, biochemical, human TNAP, uHTS hits (AID 488906); format: functional
[17] = target: Intestinal-type alkaline phosphatase (Homo sapiens, UniProt P09923); assay: inhibition of human intestinal alkaline phosphatase – biochemical, dose response (AID 488876); format: functional
Albumin = Albumin (Bos taurus, UniProt P02769); assay: Counterscreen for inhibitors of T-cell receptor (TCR)-CD3 interaction: Fluorescence-based biochemical high throughput dose response assay to identify inhibitors of T-cell receptor (TCR)-CD3 interaction using a TAMRA-labeled BSA probe.; format: functional
[18] = target: T7, Histone-lysine N-methyltransferase NSD2 (Homo sapiens, UniProt O96028); format: biochemical
T7 sequence (O96028 whole entry): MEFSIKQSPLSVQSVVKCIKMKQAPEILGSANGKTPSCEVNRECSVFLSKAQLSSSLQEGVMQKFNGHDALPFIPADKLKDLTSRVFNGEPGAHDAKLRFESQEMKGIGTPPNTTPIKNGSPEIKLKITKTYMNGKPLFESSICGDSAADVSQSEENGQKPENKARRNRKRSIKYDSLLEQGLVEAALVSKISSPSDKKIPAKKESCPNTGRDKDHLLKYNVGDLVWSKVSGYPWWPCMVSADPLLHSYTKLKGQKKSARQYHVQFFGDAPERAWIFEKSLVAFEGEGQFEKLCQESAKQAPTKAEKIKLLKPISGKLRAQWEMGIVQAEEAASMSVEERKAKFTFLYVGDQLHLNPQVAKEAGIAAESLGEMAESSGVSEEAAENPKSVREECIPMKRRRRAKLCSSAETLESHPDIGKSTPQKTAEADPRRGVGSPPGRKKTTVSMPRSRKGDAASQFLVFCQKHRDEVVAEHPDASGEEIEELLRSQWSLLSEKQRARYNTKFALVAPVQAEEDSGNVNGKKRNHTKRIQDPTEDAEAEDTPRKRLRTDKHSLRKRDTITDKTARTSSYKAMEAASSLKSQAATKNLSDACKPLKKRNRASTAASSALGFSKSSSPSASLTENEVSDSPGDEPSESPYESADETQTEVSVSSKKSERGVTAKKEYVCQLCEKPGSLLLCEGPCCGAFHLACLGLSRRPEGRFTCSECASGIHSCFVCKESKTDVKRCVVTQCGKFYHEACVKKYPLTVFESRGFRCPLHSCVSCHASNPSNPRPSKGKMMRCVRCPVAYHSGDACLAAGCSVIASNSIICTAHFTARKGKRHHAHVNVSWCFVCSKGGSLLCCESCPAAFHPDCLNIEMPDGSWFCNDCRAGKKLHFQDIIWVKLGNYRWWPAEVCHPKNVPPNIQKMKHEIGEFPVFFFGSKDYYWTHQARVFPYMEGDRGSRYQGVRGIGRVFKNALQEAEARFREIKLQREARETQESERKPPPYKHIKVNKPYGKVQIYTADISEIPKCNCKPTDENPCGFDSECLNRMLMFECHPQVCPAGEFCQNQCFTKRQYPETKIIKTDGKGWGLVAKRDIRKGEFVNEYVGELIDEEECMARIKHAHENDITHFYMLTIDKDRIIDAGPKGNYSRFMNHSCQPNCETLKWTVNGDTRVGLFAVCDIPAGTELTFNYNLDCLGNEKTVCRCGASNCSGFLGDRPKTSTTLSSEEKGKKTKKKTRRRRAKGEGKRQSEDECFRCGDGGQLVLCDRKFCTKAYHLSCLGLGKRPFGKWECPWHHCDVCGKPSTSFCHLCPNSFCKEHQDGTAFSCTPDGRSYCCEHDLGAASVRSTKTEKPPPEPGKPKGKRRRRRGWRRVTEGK

Cytochrome P450 2C9 = Cytochrome P450 2C9 (Homo sapiens, UniProt P11712)
Cytochrome P450 2C9, sequence (P11712 whole entry): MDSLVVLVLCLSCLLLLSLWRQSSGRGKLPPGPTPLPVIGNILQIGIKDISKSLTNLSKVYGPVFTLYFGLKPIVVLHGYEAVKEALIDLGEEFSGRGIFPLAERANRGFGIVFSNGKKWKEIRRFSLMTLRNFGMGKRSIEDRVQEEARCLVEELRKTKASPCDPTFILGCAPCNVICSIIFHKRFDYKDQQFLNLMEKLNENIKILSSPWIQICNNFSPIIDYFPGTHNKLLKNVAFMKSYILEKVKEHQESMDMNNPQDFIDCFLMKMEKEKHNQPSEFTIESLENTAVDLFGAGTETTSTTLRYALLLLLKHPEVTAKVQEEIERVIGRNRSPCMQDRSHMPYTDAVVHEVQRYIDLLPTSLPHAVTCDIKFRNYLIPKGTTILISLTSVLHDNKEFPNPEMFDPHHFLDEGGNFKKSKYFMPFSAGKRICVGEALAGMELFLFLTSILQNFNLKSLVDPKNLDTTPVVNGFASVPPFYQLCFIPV

[19] = inhibitors of firefly luciferase expression or activity, dose response, H4 neuroglioma cells, luminescence (AID 1990); format: functional, cell-based
HEK293 [20] = assay: NOD1 signaling inhibitors, primary screen, cell-based, luminescence, uHTS (AID 1578); format: functional; details: Homo sapiens
HEK293 [21] = assay: cells; format: functional, cell-based; details: Homo sapiens
[22] = Luminescence Cell-Based Dose Response HTS to Identify Inhibitors of 5'UTR Stem-Loop Driven Prion Protein mRNA Translation in H4 Neuroglioblastoma Cells. [Related pubchem assays: 1827 (Project Summary), 1813 (Primary HTS)]; format: functional
[23] = inhibitors of SNCA 5'UTR-driven reporter translation, confirmation, H4 neuroglioma cells, luminescence (AID 1988); format: functional, cell-based
HEK293 [24] = assay: cells; format: functional, cell-based; details: Homo sapiens; remark: listed apart in the source
[25] = target: Luciferin 4-monooxygenase (Photinus pyralis, UniProt P08659); assay: firefly luciferase enzyme inhibitors, dose response, biochemical, luminescence (AID 1891)
Luciferin 4-monooxygenase, sequence (P08659 whole entry): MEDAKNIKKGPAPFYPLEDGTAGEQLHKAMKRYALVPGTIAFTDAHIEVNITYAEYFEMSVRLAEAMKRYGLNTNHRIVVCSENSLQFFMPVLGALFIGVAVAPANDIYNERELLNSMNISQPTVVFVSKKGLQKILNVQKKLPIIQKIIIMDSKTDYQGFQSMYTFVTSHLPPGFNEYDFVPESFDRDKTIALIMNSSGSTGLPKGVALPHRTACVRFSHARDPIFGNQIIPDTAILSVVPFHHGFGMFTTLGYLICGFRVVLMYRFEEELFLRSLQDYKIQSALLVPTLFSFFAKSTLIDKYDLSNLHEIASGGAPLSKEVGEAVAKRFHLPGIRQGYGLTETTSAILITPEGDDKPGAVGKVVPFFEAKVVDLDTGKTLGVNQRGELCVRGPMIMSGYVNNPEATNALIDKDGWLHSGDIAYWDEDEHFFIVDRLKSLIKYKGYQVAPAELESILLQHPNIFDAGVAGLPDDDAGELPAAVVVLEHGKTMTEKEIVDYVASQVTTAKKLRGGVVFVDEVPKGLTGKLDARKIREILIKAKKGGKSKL

[26] = Luminescence Cell-Based Dose Confirmation HTS to Identify Inhibitors of Platelet Dense Granule Release. [Related pubchem assays: 1663 (Primary HTS), 1678 (Summary of Project)]; format: functional
[27] = target: Nucleotide-binding oligomerization domain-containing protein 2 (Homo sapiens, UniProt Q9HC29); assay: NOD2 signaling inhibitors, cell-based, luminescence, uHTS, HEK293 (AID 1566); format: functional
HEK293 [28] = assay: NOD2 signaling inhibitors in MDP-stimulated cells, cell-based, uHTS, luminescence (AID 2001); format: functional; details: Homo sapiens
HEK293 [29] = assay: cells; format: functional, cell-based; details: Homo sapiens; remark: listed apart in the source

Alkaline phosphatase, placental type, sequence (P05187 whole entry): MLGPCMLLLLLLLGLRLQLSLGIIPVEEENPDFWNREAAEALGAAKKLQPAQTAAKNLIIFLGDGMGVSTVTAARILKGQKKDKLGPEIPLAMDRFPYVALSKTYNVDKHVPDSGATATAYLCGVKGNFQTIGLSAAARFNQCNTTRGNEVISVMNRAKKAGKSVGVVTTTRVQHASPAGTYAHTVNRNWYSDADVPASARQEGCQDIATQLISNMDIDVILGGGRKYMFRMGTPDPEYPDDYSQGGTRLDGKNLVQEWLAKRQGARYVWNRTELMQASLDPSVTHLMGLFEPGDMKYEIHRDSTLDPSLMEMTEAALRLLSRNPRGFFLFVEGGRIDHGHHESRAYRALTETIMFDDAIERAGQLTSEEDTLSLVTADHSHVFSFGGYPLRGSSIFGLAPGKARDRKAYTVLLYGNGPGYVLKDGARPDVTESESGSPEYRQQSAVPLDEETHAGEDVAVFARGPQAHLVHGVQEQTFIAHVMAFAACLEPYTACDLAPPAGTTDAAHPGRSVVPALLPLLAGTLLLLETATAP
Glyceraldehyde-3-phosphate dehydrogenase, sequence (P04406 whole entry): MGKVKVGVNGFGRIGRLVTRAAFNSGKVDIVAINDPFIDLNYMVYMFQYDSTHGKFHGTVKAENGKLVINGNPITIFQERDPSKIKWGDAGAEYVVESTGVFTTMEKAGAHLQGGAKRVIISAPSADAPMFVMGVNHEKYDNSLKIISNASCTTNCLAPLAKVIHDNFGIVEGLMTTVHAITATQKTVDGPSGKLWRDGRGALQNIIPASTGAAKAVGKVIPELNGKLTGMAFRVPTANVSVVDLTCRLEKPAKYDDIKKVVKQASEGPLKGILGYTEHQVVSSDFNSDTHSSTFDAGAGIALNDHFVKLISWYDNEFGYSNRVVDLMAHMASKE

## O=C(c1cc(-c2cc(F)c(Cl)cc2Cl)[nH]n1)N1CCCCC1
[1]
  IC50: > 100 µM (not active)
[2]
  IC50: > 100 µM (inactive)
[3]
  IC50: 0.322 µM (active)

## CC(=O)N1N=C(c2cccs2)CC1c1cccc([N+](=O)[O-])c1 (stereo not drawn)
[4]
  IC50: > 32 µM (inactive)
Mu-type opioid receptor
  EC50: > 32 µM (inactive)
[5]
  EC50: > 32 µM (inactive)
[6]
  IC50: 14.4 µM (active)
Beta-galactosidase [7]
  EC50: 20.4 µM (active)
[8]
  IC50: > 32 µM

## COC(=O)c1ccccc1NC(=O)CSc1nnc(-c2ccccc2Cl)[nH]1
[1]
  IC50: > 100 µM (not active)
[2]
  IC50: > 100 µM (inactive)
[3]
  IC50: 4.88 µM (active)

## CN(C)c1ccnc(-c2ccccc2C(F)(F)F)n1
Cytochrome P450 3A4
  AC50: inconclusive

## COc1ccc(C(=O)CSc2nc(C)cc(C)n2)cc1
[2]
  IC50: > 100 µM (inactive)
[3]
  IC50: > 100 µM (inactive)

## Cc1c(N=NC2=C(O)CC(C)(C)CC2=O)c(=O)n(-c2ccccc2)n1C
[9]
  EC50: > 160 µM (inactive)
Beta-galactosidase [10]
  IC50: > 66.6 µM (inactive)
Nonstructural protein 1
  IC50: 3.63 µM (active)

## COc1cc(-c2cc(=O)c3c(O)c(OC)c(OC)c(O)c3o2)ccc1O [ISOTHYMONIN]
[11]
  EC50: 48 µM (active)
[12]
  EC50: 7.08 µM (inconclusive)
Large T antigen
  IC50: 6.77 µM (active)
[13]
  IC50: > 80 µM (inactive)
[14]
  AC50: 0.892 µM (active)

## O=C(Cc1nnc(NC(=O)c2ccccc2)s1)N/N=C\c1ccc(O)c(O)c1
Large T antigen
  IC50: 20.8 µM (active)
[15]
  IC50: 24.6 µM (active)
[16]
  IC50: > 100 µM (inactive)
[17]
  IC50: > 100 µM (inactive)
Albumin
  IC50: > 94.1 µM (inactive)
[18]
  AC50: 5.23 µM (active)

## CCOC(=O)c1c(C)nc2sc3c(=O)n(-c4ccc(C)cc4)cnc3c2c1-c1ccc(OC)cc1
Cytochrome P450 2C9
  AC50: 0.355 µM (inconclusive)
Cytochrome P450 3A4
  AC50: inconclusive

## Cc1cc(/C=N/Nc2ncnc(N)c2[N+](=O)[O-])c(C)n1-c1ccccc1
[19]
  EC50: 0.171 µM (active)
HEK293 [20]
  EC50: 4.14 µM (active)
HEK293 [21]
  IC50: 1.4 µM (active)
[22]
  EC50: < 0.1 µM (active)
[23]
  EC50: 0.192 µM (active)
HEK293 [24]
  IC50: > 20 µM (inactive)
[25]
  EC50: 1.1 µM (active)
[26]
  EC50: 3.67 µM (active)
[27]
  EC50: < 0.31 µM (inactive)
HEK293 [28]
  IC50: 6.1 µM (active)
HEK293 [29]
  IC50: > 20 µM (inactive)

## CC(C)(C)C1CCC(OCC(O)CN2CCN(c3ccccc3)CC2)CC1.Cl (stereo not drawn)
Cytochrome P450 3A4
  AC50: inconclusive
